Values after ≈ are worked out from the molar mass of the structure shown.
Key:
[1] = system: Staphylococcus aureus; test: Antibacterial activity against Staphylococcus aureus ATCC 25923 after 16 to 20 hrs by CLSI protocol based broth microdilution method; format: functional
[2] = system: Staphylococcus epidermidis; test: Antibacterial activity against Staphylococcus epidermidis ATCC 12228 after 16 to 20 hrs by CLSI protocol based broth microdilution method; format: functional
[3] = system: Pseudomonas aeruginosa; test: Growth inhibition of Pseudomonas aeruginosa PA14 after 24 hrs; format: functional, organism-based; conditions: PA14, 24 h
[4] = system: Staphylococcus aureus; test: Antibacterial activity against methicillin-resistant Staphylococcus aureus 757 after 20 hrs by CLSI-based microdilution method; format: functional; conditions: Staphylococcus aureus, 757, 20 h
[5] = system: Staphylococcus aureus; test: Antibacterial activity against methicillin-resistant Staphylococcus aureus 2011 after 20 hrs by CLSI-based microdilution method; format: functional; conditions: Staphylococcus aureus, 2011, 20 h
[6] = system: Enterococcus faecium; test: Antibacterial activity against […] Enterococcus faecium 1092 after 20 hrs by CLSI-based microdilution method; format: functional; conditions: Enterococcus faecium, 1092, 20 h
[7] = system: Escherichia coli; test: Antibacterial activity against Escherichia coli 2271 after 20 hrs by CLSI-based microdilution method; format: functional; conditions: Escherichia coli, 2271, 20 h
[8] = system: Escherichia coli; test: Antibacterial activity against Escherichia coli 121 after 20 hrs by CLSI-based microdilution method; format: functional; conditions: O157:H7 str. 121, 20 h
[9] = system: Streptococcus pneumoniae; test: Antibacterial activity against Streptococcus pneumoniae 911 after 20 hrs by CLSI-based microdilution method; format: functional; conditions: Streptococcus pneumoniae, 911, 20 h
[10] = system: Haemophilus influenzae; test: Antibacterial activity against Haemophilus influenzae 1244 after 20 hrs by CLSI-based microdilution method; format: functional; conditions: Haemophilus influenzae, 1244, 20 h
[11] = system: Staphylococcus aureus; test: Antibacterial activity against Staphylococcus aureus ATCC 29213 by broth microdilution method; format: functional
[12] = system: Acinetobacter baumannii; test: Antibacterial activity against Acinetobacter baumannii ATCC 19606 by broth microdilution method; format: functional; conditions: ATCC 19606 = CIP 70.34 = JCM 6841
[13] = system: Staphylococcus aureus; test: Antibacterial activity against Staphylococcus aureus BAA-977 expressing iermA by broth microdilution method; format: functional
[14] = system: Staphylococcus aureus; test: Antibacterial activity against methicillin-resistant Staphylococcus aureus NRS384 expressing MsrA by broth microdilution method; format: functional
[15] = system: Enterococcus faecalis; test: Antibacterial activity against Enterococcus faecalis ATCC 29212 by broth microdilution method; format: functional
[16] = system: Enterococcus faecalis; test: Antibacterial activity against Enterococcus faecalis UNT-047 expressing ermB by broth microdilution method; format: functional
[17] = system: Streptococcus pneumoniae; test: Antibacterial activity against Streptococcus pneumoniae ATCC 49619 by broth microdilution method; format: functional
[18] = system: Streptococcus pneumoniae; test: Antibacterial activity against Streptococcus pneumoniae UNT-042 expressing ermB/mefA by broth microdilution method; format: functional
[19] = system: Pseudomonas aeruginosa; test: Antibacterial activity against Pseudomonas aeruginosa ATCC 27853 by broth microdilution method; format: functional
[20] = Drug accumulation in Escherichia coli MG1655 assessed per 10^12 CFU at 50 uM incubated for 10 mins under shaking condition by LC-MS/MS analysis; format: ADME, K-12 substr. MG1655
[21] = system: Staphylococcus aureus; test: Antibacterial activity against Staphylococcus aureus NRS3 by broth microdilution method; format: functional
[22] = system: Escherichia coli; test: Antibacterial activity against Escherichia coli MG1655 by broth microdilution method; format: functional; conditions: K-12 substr. MG1655
[23] = system: Escherichia coli; test: Antibacterial activity against Escherichia coli ELZ4017 by broth microdilution method; format: functional
[24] = system: Escherichia coli; test: Antibacterial activity against Escherichia coli ELZ4045 by broth microdilution method; format: functional
[25] = system: Escherichia coli; test: Antibacterial activity against Escherichia coli ELZ4346 by broth microdilution method; format: functional
[26] = system: Escherichia coli; test: Antibacterial activity against Escherichia coli ELZ4081 by broth microdilution method; format: functional
[27] = system: Escherichia coli; test: Antibacterial activity against Escherichia coli ELZ4072 by broth microdilution method; format: functional
[28] = system: Escherichia coli; test: Antibacterial activity against Escherichia coli ELZ4239 by broth microdilution method; format: functional
[29] = system: Escherichia coli; test: Antibacterial activity against Escherichia coli BAA-2469 by broth microdilution method; format: functional
[30] = system: Klebsiella pneumoniae; test: Antibacterial activity against Klebsiella pneumoniae ATCC 27736 by broth microdilution method; format: functional
[31] = system: Klebsiella pneumoniae; test: Antibacterial activity against Klebsiella pneumoniae 4-38 by broth microdilution method; format: functional
[32] = system: Klebsiella pneumoniae; test: Antibacterial activity against Klebsiella pneumoniae 6-73 by broth microdilution method; format: functional
[33] = system: Enterobacter cloacae; test: Antibacterial activity against Enterobacter cloacae ATCC 29893 by broth microdilution method; format: functional
[34] = system: Enterobacter cloacae; test: Antibacterial activity against Enterobacter cloacae 1-60 by broth microdilution method; format: functional
[35] = system: Enterobacter cloacae; test: Antibacterial activity against Enterobacter cloacae 3-46 by broth microdilution method; format: functional

## c1ccc2nc3ccccc3nc2c1 [PHENAZINE]
[1]
  MIC: 6.25 µM (≈ 1.13 µg/mL)
[2]
  MIC: 6.25 µM (≈ 1.13 µg/mL)

## CCCCCC[C@H](CCCCC[C@H](O)C(N)=O)OC(=O)[C@@H]1CC=CN1C(=O)c1ccccc1O
[3]
  IC50: 5 µM

## CN(C)[C@@H]1C(O)=C(C(N)=O)C(=O)[C@@]2(O)C(O)=C3C(=O)c4c(O)cccc4[C@@](C)(O)[C@H]3C[C@@H]12 [TETRACYCLINE]
[4]
  MIC: 64 µg/mL (≈ 144 µM)
[5]
  MIC: 32 µg/mL (≈ 72 µM)
[6]
  MIC: > 64 µg/mL
[7]
  MIC: 64 µg/mL (≈ 144 µM)
[8]
  MIC: 64 µg/mL (≈ 144 µM)
[9]
  MIC: 64 µg/mL (≈ 144 µM)
[10]
  MIC: 16 µg/mL (≈ 36 µM)

## CO[C@]1(C)C[C@@H](C)CN[C@H](C)[C@@H]2N(CCCCn3cc(-c4cccc(N)c4)nn3)C(=O)O[C@]2(C)[C@@H](CCF)OC(=O)[C@H](C)C(=O)[C@H](C)[C@H]1O[C@@H]1O[C@H](C)C[C@H](N(C)C)[C@H]1O
[11]
  MIC: 1 µg/mL (≈ 1.18 µM)
[12]
  MIC: 4 µg/mL (≈ 4.73 µM)
[13]
  MIC: 1 µg/mL (≈ 1.18 µM)
[14]
  MIC: 2 µg/mL (≈ 2.36 µM)
[15]
  MIC: 0.125 µg/mL (≈ 0.148 µM)
[16]
  MIC: > 64 µg/mL
[17]
  MIC: ≤ 0.03 µg/mL
[18]
  MIC: 2 µg/mL (≈ 2.36 µM)
[19]
  MIC: > 64 µg/mL

## CN(C)c1c2c(c(O)c3cc(CNC(C)(C)C)ccc13)C(=O)C1=C(O)[C@]3(O)C(=O)C(C(N)=O)=C(O)[C@@H](N(C)C)[C@@H]3C[C@@H]1C2
[4]
  MIC: 1 µg/mL (≈ 1.69 µM)
[5]
  MIC: 0.25 µg/mL (≈ 0.422 µM)
[6]
  MIC: 0.5 µg/mL (≈ 0.844 µM)
[7]
  MIC: 1 µg/mL (≈ 1.69 µM)
[8]
  MIC: 1 µg/mL (≈ 1.69 µM)
[9]
  MIC: 0.5 µg/mL (≈ 0.844 µM)
[10]
  MIC: 0.25 µg/mL (≈ 0.422 µM)

## Cc1cc(=O)n(C)c2c3c4c(cc12)c(C)cc(=O)n4CCO3
[20]
  Drug uptake: 298 nmol
[11]
  MIC: 0.06 to 1 µg/mL (≈ 0.202 to 3.37 µM)
[21]
  MIC: 0.06 to 1 µg/mL (≈ 0.202 to 3.37 µM)
[22]
  MIC: > 32 µg/mL
[23]
  MIC: > 32 µg/mL
[24]
  MIC: > 32 µg/mL
[25]
  MIC: > 32 µg/mL
[26]
  MIC: > 32 µg/mL
[27]
  MIC: > 32 µg/mL
[28]
  MIC: > 32 µg/mL
[29]
  MIC: > 32 µg/mL
[30]
  MIC: > 32 µg/mL
[31]
  MIC: > 32 µg/mL
[32]
  MIC: > 32 µg/mL
[33]
  MIC: ≥ 32 µg/mL
[34]
  MIC: ≥ 32 µg/mL
[35]
  MIC: ≥ 32 µg/mL

— ChEMBL document CHEMBL4321783, “Recent Progress in Natural-Product-Inspired Programs Aimed To Address Antibiotic Resistance and Tolerance” (J Med Chem, 2019)
